Data as given in ChEMBL document CHEMBL1255238, “Induction of erm(C) expression by noninducing antibiotics” (2008).
Converted amounts (≈) assume the structure as drawn. The source made the active and inactive calls. The rule behind the calls is not given here.

Columns and labels:
Escherichia coli [1] = assay: Induction of erm(C) expression in Escherichia coli JM109 harboring Staphylococcus aureus erm(C)-containing pERMZalpha reporter plasmid at 10 mg/ml after 36 hrs at 37 degC by disc-based beta-galactosidase reporter gene assay; format: functional, organism-based
Escherichia coli [2] = assay: Induction of erm(C) expression in Escherichia coli JM109 harboring Staphylococcus aureus erm(C)-containing pERMZ7 lacking codons 2 to 4 with additional mutations leader peptide cistrons reporter plasmid at 25 mg/ml after 36 hrs at 37 degC by disc-based beta-galactosidase reporter gene assay; format: functional, organism-based
Escherichia coli [3] = assay: Induction of erm(C) expression in Escherichia coli JM109 harboring Staphylococcus aureus erm(C)-containing pERMZalpha reporter plasmid after 36 hrs at 25 mg/ml 37 degC by disc-based beta-galactosidase reporter gene assay; format: functional, organism-based
Escherichia coli [4] = assay: Induction of erm(C) expression in Escherichia coli JM109 harboring Staphylococcus aureus erm(C)-containing pERMZdelta2-4 mutant leader peptide cistrons reporter plasmid at 25 mg/ml after 36 hrs at 37 degC by disc-based beta-galactosidase reporter gene assay; format: functional, organism-based
Escherichia coli [5] = assay: Induction of erm(C) expression in Escherichia coli ZK796 harboring Staphylococcus aureus erm(C)-containing pERMCT plasmid assessed as increase in A2058 dimethylation in 23S rRNA at 25% MIC after 4 hrs by primer extension assay; format: functional, organism-based
Escherichia coli [6] = assay: Induction of erm(C) expression in Escherichia coli JM109 harboring Staphylococcus aureus erm(C)-containing pERMZalpha reporter plasmid at 4.5 mg/ml after 36 hrs at 37 degC by disc-based beta-galactosidase reporter gene assay; format: functional, organism-based
Escherichia coli [7] = assay: Induction of erm(C) expression in Escherichia coli ZK796 harboring Staphylococcus aureus erm(C)-containing pERMCT plasmid assessed as increase in A2058 dimethylation in 23S rRNA at 0.8 ug/ml after 30 mins by primer extension assay; format: functional, organism-based
Escherichia coli [8] = assay: Antimicrobial activity against Escherichia coli ZK796 harboring empty plasmid; format: functional
Escherichia coli [9] = assay: Antimicrobial activity against Escherichia coli ZK796 harboring Staphylococcus aureus erm(C)-containing pERMCT plasmid; format: functional
Escherichia coli [10] = assay: Induction of erm(C) expression in Escherichia coli JM109 harboring Staphylococcus aureus erm(C)-containing pERMZalpha reporter plasmid after 36 hrs at 37 degC by disc-based beta-galactosidase reporter gene assay; format: functional, organism-based
Escherichia coli [11] = assay: Induction of erm(C) expression in Escherichia coli JM109 harboring Staphylococcus aureus erm(C)-containing pERMZalpha reporter plasmid at 1.5 mg/ml after 36 hrs at 37 degC by disc-based beta-galactosidase reporter gene assay; format: functional, organism-based
Escherichia coli [12] = assay: Induction of erm(C) expression in Escherichia coli JM109 harboring Staphylococcus aureus erm(C)-containing pERMZalpha reporter plasmid at 8 mg/ml after 36 hrs at 37 degC by disc-based beta-galactosidase reporter gene assay; format: functional, organism-based
Escherichia coli [13] = assay: Induction of erm(C) expression in Escherichia coli ZK796 harboring Staphylococcus aureus erm(C)-containing pERMCT plasmid assessed as increase in A2058 dimethylation in 23S rRNA at 0.4 ug/ml after 4 hrs by primer extension assay; format: functional, organism-based
Escherichia coli [14] = assay: Induction of erm(C) expression in Escherichia coli ZK796 harboring Staphylococcus aureus erm(C)-containing pERMCT plasmid assessed as increase in A2058 dimethylation in 23S rRNA at 0.4 ug/ml at 2 hrs by primer extension assay; format: functional, organism-based

Row | Compound | Activity (Escherichia coli [1]) | Activity (Escherichia coli [2]) | Activity (Escherichia coli [4]) | Activity (Escherichia coli [5]) | also measured
1 | SPIRAMYCIN | inactive |  |  |  | 
2 | CC[C@H]1OC(=O)[C@H](C)[C@@H](O[C@H]2C[C@@](C)(OC)[C@@H](O)[C@H](C)O2)[C@H](C)[C@@H](O[C@@H]2O[C@H](C)C[C@H](N(C)C)[C@H]2O)[C@](C)(O)C[C@@H](C)CN(C)[C@H](C)[C@@H](O)[C@]1(C)O |  | inactive | inactive | Active | Activity (Escherichia coli [3]): inactive
3 | CC[C@H]1OC(=O)[C@H](C)[C@@H](O[C@H]2C[C@@](C)(OC)[C@@H](O)[C@H](C)O2)[C@H](C)[C@@H](O[C@@H]2O[C@H](C)C[C@H](N(C)C)[C@H]2O)[C@](C)(O)C[C@@H](C)C(=O)[C@H](C)[C@@H](O)[C@]1(C)O [ERYTHROMYCIN] |  | inactive | inactive | Active | Activity (Escherichia coli [6]): Active; Activity (Escherichia coli [7]): Active; MIC (Escherichia coli [8]): 3 µg/mL (≈ 4.09 µM); MIC (Escherichia coli [9]): 25 µg/mL (≈ 34.1 µM)
4 | CC[C@H]1OC(=O)[C@@](C)(F)C(=O)[C@H](C)[C@@H](O[C@@H]2O[C@H](C)C[C@H](N(C)C)[C@H]2O)[C@](C)(OC)C[C@@H](C)C(=O)[C@H](C)[C@@H]2N(CCCCn3cnc(-c4cccnc4)c3)C(=O)O[C@@]21C |  | inactive | inactive |  | Activity (Escherichia coli [10]): Active
5 | O=C(N[C@H](CO)[C@H](O)c1ccc([N+](=O)[O-])cc1)C(Cl)Cl [CHLORAMPHENICOL] |  |  |  |  | MIC (Escherichia coli [8]): 2 µg/mL (≈ 6.19 µM); MIC (Escherichia coli [9]): 2 µg/mL (≈ 6.19 µM)
6 | CC[C@H]1OC(=O)[C@H](C)C(=O)[C@H](C)[C@@H](O[C@@H]2O[C@H](C)C[C@H](N(C)C)[C@H]2O)[C@](C)(OC)C[C@@H](C)C(=O)[C@H](C)[C@@H]2N(NCCc3ccccc3)C(=O)O[C@@]21C |  | inactive | inactive |  | 
7 | CC[C@H]1OC(=O)C[C@@H](O)[C@H](C)[C@@H](O[C@@H]2O[C@H](C)[C@@H](O[C@H]3C[C@@](C)(O)[C@@H](O)[C@H](C)O3)[C@H](N(C)C)[C@H]2O)[C@@H](CC=O)C[C@@H](C)C(=O)/C=C/C(C)=C/[C@@H]1CO[C@@H]1O[C@H](C)[C@@H](O)[C@@H](OC)[C@H]1OC | inactive |  |  |  | 
8 | CC[C@H]1OC(=O)[C@H](C)[C@@H](O[C@H]2C[C@@](C)(OC)[C@@H](O)[C@H](C)O2)[C@H](C)[C@@H](O[C@@H]2O[C@H](C)C[C@H](N(C)C)[C@H]2O)[C@](C)(O)C[C@@H](C)/C(=N\OCOCCOC)[C@H](C)[C@@H](O)[C@]1(C)O |  | inactive | inactive |  | 
9 | CC[C@H]1OC(=O)[C@H](C)C(=O)[C@H](C)[C@@H](O[C@@H]2O[C@H](C)C[C@H](N(C)C)[C@H]2O)[C@](C)(OC)C[C@@H](C)C(=O)[C@H](C)[C@@H]2N(NCCCc3ccnc4ccccc34)C(=O)O[C@@]21C |  | inactive | inactive |  | Activity (Escherichia coli [11]): Active; Activity (Escherichia coli [10]): Active
10 | CC[C@H]1OC(=O)[C@H](C)[C@@H](O[C@H]2C[C@@](C)(OC)[C@@H](O)[C@H](C)O2)[C@H](C)[C@@H](O[C@@H]2O[C@H](C)C[C@H](N(C)C)[C@H]2O)[C@](C)(OC)C[C@@H](C)C(=O)[C@H](C)[C@@H](O)[C@]1(C)O |  | inactive | inactive |  | Activity (Escherichia coli [12]): Active
11 | CC[C@H]1OC(=O)[C@H](C)[C@@H](O[C@H]2C[C@@](C)(OC)[C@@H](O)[C@H](C)O2)[C@H](C)[C@@H](O[C@@H]2O[C@H](C)C[C@H](N(C)C)[C@H]2O)[C@](C)(OC)C[C@@H](C)C(=O)[C@H](C)[C@@H]2N(CCCCn3cnc(-c4cccnc4)c3)C(=O)O[C@@]21C | Active |  |  | Active | 
12 | CC[C@H]1OC(=O)[C@H](C)[C@@H](O[C@H]2C[C@@](C)(OC)[C@@H](O)[C@H](C)O2)[C@H](C)[C@@H](O[C@@H]2O[C@H](C)C[C@H](N(C)C)[C@H]2O)[C@](C)(OC)C[C@@H](C)C(=O)[C@H](C)[C@@H]2N(NCCCc3ccnc4ccccc34)C(=O)O[C@@]21C | Active | inactive | inactive |  | 
13 | CC[C@H]1OC(=O)[C@H](C)C(=O)[C@H](C)[C@@H](O[C@@H]2O[C@H](C)C[C@H](N(C)C)[C@H]2O)[C@](C)(OCC=Cc2cnc3ccccc3c2)C[C@@H](C)C(=O)[C@H](C)[C@H]2NC(=O)O[C@@]21C [CETHROMYCIN] |  | inactive | inactive | Active | Activity (Escherichia coli [10]): Active; MIC (Escherichia coli [8]): 1.5 µg/mL (≈ 1.96 µM); MIC (Escherichia coli [9]): 1.5 µg/mL (≈ 1.96 µM)
14 | CC[C@H]1OC(=O)[C@H](C)C(=O)[C@H](C)[C@@H](O[C@@H]2O[C@H](C)C[C@H](N(C)C)[C@H]2O)[C@](C)(OC)C[C@@H](C)C(=O)[C@H](C)[C@H]2N(CCCCn3cnc(-c4cccnc4)c3)C(=O)O[C@]12C [TELITHROMYCIN] |  | inactive | inactive | Active | Activity (Escherichia coli [11]): Active; Activity (Escherichia coli [10]): Active; Activity (Escherichia coli [13]): Active; Activity (Escherichia coli [14]): inactive; MIC (Escherichia coli [8]): 1.5 µg/mL (≈ 1.85 µM); MIC (Escherichia coli [9]): 1.5 µg/mL (≈ 1.85 µM)
15 | CO[C@@H]1[C@@H](O[C@@H]2O[C@H](C)[C@@H](O[C@H]3C[C@@](C)(O)[C@@H](OC(=O)CC(C)C)[C@H](C)O3)[C@H](N(C)C)[C@H]2O)[C@@H](CC=O)C[C@@H](C)[C@@H](O)/C=C/C=C/C[C@@H](C)OC(=O)C[C@H]1OC(C)=O | inactive |  |  |  | 
